One test relates to HT1197 cells. The test is described as follows: Cell-based assay, anti-proliferative activity, MELK-negative control (Cell Counting Kit-8, 72 hours). The arrangement: species or system human. Conditions: Homo sapiens, HT1197, 72 h, read-out: IC50 (μM) (HTll97). Here is the method: 100 micro-L of cell suspension was seeded onto 96-well microtiter plate (ViewPlate-96FTC, PerkinElmer). The initial cell concentration of 22Rv1, T47D, A549, DU4475, and HT1197 were 3,000 cells/well, 2,000 cells/well and 2,500 cells/well, respectively. Cellular growth was determined using Cell Counting Kit-8 (DOJINDO) at 72 hours after the exposure of the candidate inhibitors. […] Accurate IC50 values were calculated as described previously.

A further test has as its target MELK (Homo sapiens, UniProt Q14680). The test is described as follows: Kinase assay (IMAP fluorescence polarization, FITC-labeled histone H3 peptide). The format is biochemical. Conditions: 50 micro-M ATP. The procedure, abridged:
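Kinase (0.8 ng/μL) reacted with 100 nM FITC-histone H3 peptide and 50 μM ATP in 20 mM HEPES, 0.3 mM MgCl2, 2 mM DTT, 0.01% Tween-20, pH 7.4, for 1 hour at room temperature. Phosphorylation read by IMAP fluorescence polarization after adding binding solution; IC50 from four-parameter fit.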

In the next test the test system is T47D cells. The test is described as follows: Cell-based assay, anti-proliferative activity (Cell Counting Kit-8, 72 hours). The settings on record: Homo sapiens, T47D, 72 h, read-out: IC50 (μM) (T47D). Set-up: species or system human. The method in brief:
(§1)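 Cells seeded at 2,000–3,000 cells/well and exposed to candidate MELK inhibitors for 72 hours; growth measured with Cell Counting Kit-8. IC50 values calculated from the growth read-out.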
For orientation: Formazan colour is commonly taken as a measure of viable cells.

Another test deals with DU4475 cells. The description is as above. Set-up: species or system human. The settings on record: Homo sapiens, DU-4475, 72 h, read-out: IC50 (μM) (DU4475). The procedure, abridged:
as §1

The subject of the next test is A549 cells. Described as above. Set-up: species or system human. The settings on record: Homo sapiens, A549, 72 h, read-out: IC50 (μM) (A549). The procedure, abridged: as §1
The subject of the next test is 22Rv1 cells. The test is described as above. Conditions: Homo sapiens, 22Rv1, 72 h, read-out: IC50 (μM) (22Rvl). The arrangement: species or system human. The method in brief: as §1

Where a name gives a salt, the structure may show the parent alone.

Usually IC50 stands for the point on the concentration scale where inhibition reaches its midpoint.

Sequence of MELK (Q14680 whole entry, looked up): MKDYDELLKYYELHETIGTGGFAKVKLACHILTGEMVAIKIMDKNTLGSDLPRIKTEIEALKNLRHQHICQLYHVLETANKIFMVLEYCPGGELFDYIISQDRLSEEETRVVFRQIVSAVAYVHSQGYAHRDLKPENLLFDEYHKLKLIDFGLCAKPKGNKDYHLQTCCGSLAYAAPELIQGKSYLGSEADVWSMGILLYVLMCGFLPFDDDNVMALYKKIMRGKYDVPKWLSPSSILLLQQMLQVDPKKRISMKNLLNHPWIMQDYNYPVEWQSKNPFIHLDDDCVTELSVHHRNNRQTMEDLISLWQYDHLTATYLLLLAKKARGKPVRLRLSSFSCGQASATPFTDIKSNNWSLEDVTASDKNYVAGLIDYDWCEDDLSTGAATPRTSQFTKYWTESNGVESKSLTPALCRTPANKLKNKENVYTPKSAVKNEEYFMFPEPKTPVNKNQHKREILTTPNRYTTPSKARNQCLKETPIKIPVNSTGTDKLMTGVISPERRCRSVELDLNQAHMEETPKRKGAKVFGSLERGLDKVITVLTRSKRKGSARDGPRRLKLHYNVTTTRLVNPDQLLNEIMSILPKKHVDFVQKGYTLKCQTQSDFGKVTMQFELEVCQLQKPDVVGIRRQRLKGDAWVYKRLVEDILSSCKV

As for `CC(=O)c1cnc2ccc(-c3cc(Cl)c(O)c(Cl)c3)nc2c1Nc1cnc(N2CCC(N)C2)nc1` (stereo not drawn) [Example 41, 1-{4-[2-(3-Aminopyrrolidin-1-yl)pyrimidin-5-ylamino]-6-(3,5-dichloro-4-hydroxyphenyl)-1,5-naphthyridin-3-yl}ethanone trihydrochloride], the IC50 in the test with HT1197 cells amounted to 100 µM; on MELK it was 0.0017 µM; in the test on T47D cells, 0.027 µM; in the test with DU4475 cells it was 0.026 µM; in the test on A549 cells, 0.27 µM; in the test with 22Rv1 cells it was 0.052 µM.

Regarding `CC(=O)c1cnc2ccc(-c3cn[nH]c3)nc2c1N[C@H]1CC[C@H](CN(C)C)CC1` [Example 42, 1-(4-{trans-4-[(Dimethylamino)methyl]cyclohexylamino}-6-(1H-pyrazol-4-yl)-1,5-naphthyridin-3-yl)ethanone trihydrochloride], the IC50 in the test on HT1197 cells came out at 0.06 µM; at MELK it was 0.017 µM; with T47D cells it was 0.036 µM; in the test on DU4475 cells, 0.045 µM; with A549 cells it was 0.049 µM; with 22Rv1 cells, 0.063 µM.

Consider `CC(=O)c1cnc2ccc(-c3cc(Cl)c(O)c(Cl)c3)nc2c1N[C@H]1CC[C@H](CO)CC1` [Example 43, 1-(6-{3,5-Dichloro-4-hydroxyphenyl)-4-[trans-4-(hydroxymethyl)cyclohexyl]amino}-1,5-naphthyridin-3-yl)ethanone hydrochloride], for which the IC50 in the test on HT1197 cells is 0.64 µM; at MELK, 0.0031 µM; with T47D cells, 0.024 µM; in the test with DU4475 cells, 0.019 µM; in the test on A549 cells, 0.057 µM; in the test on 22Rv1 cells, 0.085 µM.

`CN(C)C[C@H]1CC[C@H](Nc2c(C(=O)CO)cnc3ccc(-c4cc(Cl)c(O)c(Cl)c4)nc23)CC1` [Example 44, 1-[6-(3,5-Dichloro-4-hydroxyphenyl)-4-{trans-4-[(dimethylamino)methyl]cyclohexyl-amino}-1,5-naphthyridin-3-yl]-2-hydroxyethanone dihydrochloride]: the IC50 in the test on HT1197 cells is 0.2 µM; against MELK it was 0.0003 µM; in the test with T47D cells, 0.0029 µM; in the test with DU4475 cells, 0.0017 µM; with A549 cells, 0.0067 µM; with 22Rv1 cells, 0.006 µM.

`CC(=O)c1cnc2ccc(-c3cc(Cl)c(O)c(Cl)c3)nc2c1NC1CCN(C)CC1` [Example 45, 1-{6-(3,5-Dichloro-4-hydroxyphenyl)-4-[(1-methylpiperidin-4-yl)amino]-1,5-naphthyridin-3-yl}ethanone]: the IC50 with HT1197 cells was 0.45 µM; against MELK, 0.0058 µM; in the test with T47D cells, 0.086 µM; in the test on DU4475 cells it was 0.096 µM; in the test with A549 cells, 0.065 µM; in the test on 22Rv1 cells it was 0.096 µM.

Turning to `CC(=O)c1cnc2ccc(-c3cc(F)c(O)c(Cl)c3)nc2c1NC1CCN(C)CC1` [Example 46, 1-{6-(3-Chloro-5-fluoro-4-hydroxyphenyl)-4-[(1-methylpiperidin-4-yl)amino]-1,5-naphthyridin-3-yl}ethanone], the IC50 in the test on HT1197 cells came out at 0.53 µM; at MELK it was 0.0061 µM; in the test on T47D cells, 0.092 µM; with DU4475 cells, 0.14 µM; in the test on A549 cells, 0.098 µM; with 22Rv1 cells it was 0.14 µM.

For the molecule `CC(=O)c1cnc2ccc(-c3cc(Cl)c(O)c(Cl)c3)nc2c1N[C@H]1CC[C@H](CN2CCOCC2)CC1` [Example 47, 1-[6-(3,5-Dichloro-4-hydroxyphenyl)-4-{[trans-4-(morpholinomethyl)cyclohexyl]amino}-1,5-naphthyridin-3-yl]ethanone], the 50% inhibitory concentration (IC50) in the test with HT1197 cells is 0.16 µM; against MELK it was 0.01 µM; in the test on T47D cells, 0.015 µM; in the test on DU4475 cells it was 0.009 µM; with A549 cells, 0.02 µM; in the test on 22Rv1 cells, 0.034 µM.

The record behind these values is US9067937B2 (priority 2012, dated 2015).
